Here are results for two compounds from patent US20120251584A1, “Combination pharmaceutical composition and methods of treating diseases or conditions associated with the cardiovascular system” (priority 2010, published 2012).

The test system of assay [1] is Wistar rats with L-NAME endothelial dysfunction. Briefly: Correction of endothelial dysfunction simulated by L-NAME in rats. Format: in vivo, rat. The method, then: Wistar rats weighed 250-300 g were divided into 4 groups. The 1st group received distilled water 9 ml/kg/day (every day, gastrointestinal introduction). […] The third group received L-NAME (12.5 mg/kg) in combination with a mixture of C12, C30, and C200 homeopathic dilutions of polyclonal rabbit antibodies to human endothelial NO synthase at 9 ml/kg/day. The 4th group received L-NAME ([…]) in combination with a mixture of C12, C30, and C200 homeopathic dilutions of polyclonal rabbit antibodies to human endothelial NO synthase at 9 ml/kg/day and mixture of C12, C30, C200 homeopathic dilutions of polyclonal rabbit antibodies to a C-terminal fragment of AT1 receptor of angiotensin II at 9 ml/kg/day.
Endothelial dysfunction was simulated by introducing L-NAME at […] in the course of 28 days. On day 29 from the beginning of the experiment, under anesthesia (sodium thiopental at 50 mg/kg), a catheter was inserted into the left carotid artery to register parameter of arterial pressure (AP). Bolus introduction of the pharmacological agent was made into right femoral vein. The following parameters were measured: systolic arterial pressure (SAP), diastolic arterial pressure (DAP), and frequency of heart beat, which were measured in real time by sensor TSD104A measurement apparatus MP100 made by Biopac System, Inc., USA. The following functional probes were used: endothelium-dependent vasodilation (EDV), intra-vein introduction of acetylcholine (AC) in the dose of 40 μg/kg, endothelium-independent vasodilation (EIV) via intravein introduction of sodium nitroprusside at 30 μ/kg.
The degree of endothelial dysfunction was evaluated via the coefficient of endothelial dysfunction as the ratio of the area of the triangle under the trend of reaction of stabilization of arterial pressure (AP) as a response to introduction of nitroprusside to the area of the triangle under the trend of reaction of stabilization of arterial pressure as a response to introduction of acetylcholine.

Assay [2] has as its system female Wistar rats with chronic heart failure (CHF). The assay is described as follows: Chronic heart failure (CHF) model induced by isadrine in rats: electrocardiogram, rheogram, exercise tolerance. The following applies: change in % on Day 28 vs. Day 7, gastric gavage.
Description: Study of the efficacy of the combined drug based on ultra-low doses (ULD), i.e. the activated-potentiated solutions as described above, of antibodies to a C-terminal fragment of angiotensin II AT1 receptor and antibodies to endothelial NO synthase (mixture of homeopathic dilutions C12, C30 and C200) in chronic heart failure (CHF) was conducted in 75 female Wistar rats (4-5 months old, weighing 220-250 g).
For chronic heart failure modeling all rats were receiving isadrine (isoproterenol hydrochloride, Sigma, Germany) 80 mg/kg twice with 24-hour interval. Animals (15 per group) were receiving the following drugs by gastric gavage: group 1 —7.5 mL/kg of ULD of antibodies against a C-terminal fragment of angiotensin II AT1 receptor (mixture of homeopathic dilutions C12, C30 and C200), group 2 —7.5 mL/kg of ULD of anti-endothelial NO synthase antibodies (mixture of homeopathic dilutions C12, C30 and C200), group 3 —15 mL/kg of combined drug (mixture of homeopathic dilutions C12, C30 and C200), group 4 —7.5 mL/kg (dose of 10 mg/kg) of losartan as a comparator, group 5 (control)—7.5 mL/kg of distilled water.
In assay [3] the test system is NISAG line male rats with hereditary stipulated stress-sensitive arterial hypertension. Briefly: NISAG rat hypertension model, systolic blood pressure. Format: in vivo. The method, then:
Investigations were conducted on 50 NISAG line male rats (weight 300 g, age 4 months) with hereditary stipulated stress-sensitive arterial hypertension, which were divided into 5 groups by 10 animals each.
Two times a week, 2 to 6 hours after administration of ULD antibodies and losartan, systolic blood pressure (SBP) was measured by an indirect method in a tail artery (using a cuff).

The mark [4] stands for this setting: functional probe: Acetyl choline 40 μg/kg, day 29.
Where [5] appears, read: functional probe: Initial, day 29, L-NAME 28 days.
[6] abbreviates: functional probe: Sodium Nitroprusside, day 29.

In the case of `COC(=O)[C@@H](N)CCCNC(=N)N[N+](=O)[O-]` [L-NAME, L-NG-nitroarginine methyl ester], the “Vascular reaction observed with EDV with acetyl choline” value in assay [1] (area under the curve of restoration of arterial pressure, Acetyl choline probe) is on record as 3700.2 ± 536.9. Besides, the “Vascular reaction observed with EIV with sodium nitroprusside” value in assay [1] (area under the curve of restoration of arterial pressure, Sodium Nitroprusside probe) is recorded as 11922.8 ± 1838.9. Also, the values for the DAP in assay [1] (setting [4]), in assay [1] (setting [5]) and in assay [1] (setting [6]) were 64.7 ± 4.3 mm HG, 164.2 ± 5.9 mm HG and 61.4 ± 4.4 mm HG, respectively. For the same compound, the SAP in assay [1] (setting [4]) was 111.3 ± 7.4 mm, HG; in assay [1] (setting [5]) it was 204.8 ± 10 mm, HG; in assay [1] (setting [6]), 118.2 ± 9.9 mm, HG. In addition, the “CED (coefficient of endothelial dysfunction)” value in assay [1] (ratio of nitroprusside area to acetylcholine area) is reported as 3.5 ± 0.5 relative units.

Consider `CCCCc1nc(Cl)c(CO)n1Cc1ccc(-c2ccccc2-c2nn[nH]n2)cc1` [Losartan, losartan], for which, in assay [2], the Cardiac output is reported as 55.31%, the Heart rate is reported as −21.28%, the “Systolic volume (by Kubrick)” value is on record as 64.01% and the T-wave amplitude is recorded as −31.64%. Further, in assay [3] (SBP after 28 days vs initial), the “Δ in comparison with the initial level, in mmHg” value is reported as −33 mmHg. The “% of the initial level” value in assay [3] (SBP change after 28 days vs initial) is −19%. In assay [3] (before treatment), the “Initial SBP in mmHg” value is 173.5 mmHg. Also, the “SBP after 28 days of medicine administration in mmHg” value in assay [3] (per orally once a day for 28 days) is recorded as 140.5 mmHg.
